Reference: EP0095292A1, “5-(2-halogenovinyl)-2'-deoxyuridine derivatives, processes for their preparation, pharmaceutical compositions containing them, and their use in treating viral infections"” (BEECHAM GROUP PLC, priority 1982, dated 1983)
Like-named read-outs stand apart in the source and are kept apart here.

Columns and labels:
[1] = test system: Herpes simplex type 1 virus (HFEM strain); assay: Plaque reduction assay in virus-infected Vero cells (agarose overlay, 4 days); assay type: cell-based; conditions: Human alphaherpesvirus 1, 96 h, concentration causing a 50% reduction in the number of virus plaques, 4 days incubation, read-out: PDD50 (the source's name)
Experimental: (§1) Vero (African Green Monkey Kidney) cells were grown to confluence in 24 well multidishes, each well being 1.6 cm in diameter. The cells were infected with Herpes simplex type 1 virus (HFEM strain) and overlaid with 0.5 mL of 0.9% agarose (w/v) in maintenance medium. Test compounds prepared in maintenance medium in concentrations ranging from […] in half-log dilution steps, were added in 0.5 mL volume. The virus infected cultures were then incubated at 37^0CC for 4 days before fixing in 4% formaldehyde solution and staining with carbolfuchsin.

[2] = Cytotoxicity observed in the plaque reduction assay cultures; assay type: cell-based; conditions: african green monkey, vero cells; minimum concentration of test compound which caused cytotoxicity; virus-infected Vero cultures, 4 days; read-out: MTD
Experimental: as §1

| SMILES | IC50 ([1]; molar units) [nM] | IC50 [1] [µg/mL] | MCC at 96 h [2] [µg/mL] |
| --- | --- | --- | --- |
| O=C(OC[C@H]1O[C@@H](n2cc(/C=C/Br)c(=O)[nH]c2=O)C[C@@H]1O)OC[C@H]1O[C@@H](n2cc(/C=C/Br)c(=O)[nH]c2=O)C[C@@H]1O [Example 1, bis-[5-(E-2-Bromovinyl)-2'-deoxyuridin-5'-yl] carbonate] | 2100 | 1.5 | 100 |
| CC(=O)O[C@H]1C[C@H](n2cc(/C=C/Br)c(=O)[nH]c2=O)O[C@@H]1COC(=O)OC[C@H]1O[C@@H](n2cc(/C=C/Br)c(=O)n(C(C)=O)c2=O)C[C@@H]1OC(C)=O [Example 2, 3',3'-Q-3-Triacetyl-bis-[5-(E-2-bromovinyl)-2'-deoxyuridin-5'-yl] carbonate] | 15100 | 12.4 | 100 |
| CC(=O)O[C@H]1C[C@H](n2cc(/C=C/Br)c(=O)[nH]c2=O)O[C@@H]1COC(=O)OC[C@H]1O[C@@H](n2cc(/C=C/Br)c(=O)[nH]c2=O)C[C@@H]1OC(C)=O [Example 3, bis-[3'-O-Acetyl-5-(E-2-bromovinyl)-2'-deoxyuridin-5'-yl] carbonate] | 10900 | 8.5 | 100 |
| O=C(CCC(=O)OC[C@H]1O[C@@H](n2cc(/C=C/Br)c(=O)[nH]c2=O)C[C@@H]1O)OC[C@H]1O[C@@H](n2cc(/C=C/Br)c(=O)[nH]c2=O)C[C@@H]1O [Example 6, bis-[5-(E-2-Bromovinyl)-2'-deoxyuridin-5'-yl] succinate] | 6400 | 4.8 | 100 |

Stronger by IC50 ([1]; molar units), values ahead:

| IC50 ([1]; molar units) [nM] | IC50 [1] [µg/mL] | SMILES | MCC at 96 h [2] [µg/mL] |
| --- | --- | --- | --- |
| 500 | 0.34 | O=C(O[C@H]1C[C@H](n2cc(/C=C/Br)c(=O)[nH]c2=O)O[C@@H]1CO)O[C@H]1C[C@H](n2cc(/C=C/Br)c(=O)[nH]c2=O)O[C@@H]1CO [Example 4, bis-[5-(E-2-Bromovinyl)-2'-deoxyuridin-3'-yl] carbonate] | 100 |
| 100 | 0.07 | O=C(n1c(=O)c(/C=C/Br)cn([C@H]2C[C@H](O)[C@@H](CO)O2)c1=O)n1c(=O)c(/C=C/Br)cn([C@H]2C[C@H](O)[C@@H](CO)O2)c1=O [Example 5, 3,3-Carbonyl-bis-[5-(E-2-bromovinyl)-2'-deoxyuridine]] | 100 |
| 140 | 0.12 | O=C(CCCCCCCCC(=O)OC[C@H]1O[C@@H](n2cc(/C=C/Br)c(=O)[nH]c2=O)C[C@@H]1O)OC[C@H]1O[C@@H](n2cc(/C=C/Br)c(=O)[nH]c2=O)C[C@@H]1O [Example 7, bis-[5-(E-2-Bromovinyl)-2'-deoxyuridin-5'-yl] sebacate] | 100 |
